Like-named read-outs stand apart in the source and are kept apart here.
What was measured:
JAK1 = JAK1 (Homo sapiens (Human), UniProt P23458); experiment: Jak Biochemical HTRF Assay (JAK1)
JAK2 = JAK2 (Homo sapiens (Human), UniProt O60674); experiment: Jak Biochemical HTRF Assay (JAK2); conditions: recombinant purified GST-tagged catalytic domain, [ATP] 8.5 μM, [E] 0.052 nM
[1] = recombinant purified GST-tagged catalytic domain, HTRF, [ATP] 31.8 μM, [E] 1.405 nM

JAK2, sequence (O60674 849-1124): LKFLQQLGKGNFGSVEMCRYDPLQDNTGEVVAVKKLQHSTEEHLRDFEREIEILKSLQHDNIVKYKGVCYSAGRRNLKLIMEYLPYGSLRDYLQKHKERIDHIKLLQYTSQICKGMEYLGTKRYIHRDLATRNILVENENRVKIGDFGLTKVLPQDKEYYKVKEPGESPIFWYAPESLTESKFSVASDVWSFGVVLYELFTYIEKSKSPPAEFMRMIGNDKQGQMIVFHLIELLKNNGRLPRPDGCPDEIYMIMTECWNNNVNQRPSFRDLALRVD
JAK1, sequence (P23458 875-1153): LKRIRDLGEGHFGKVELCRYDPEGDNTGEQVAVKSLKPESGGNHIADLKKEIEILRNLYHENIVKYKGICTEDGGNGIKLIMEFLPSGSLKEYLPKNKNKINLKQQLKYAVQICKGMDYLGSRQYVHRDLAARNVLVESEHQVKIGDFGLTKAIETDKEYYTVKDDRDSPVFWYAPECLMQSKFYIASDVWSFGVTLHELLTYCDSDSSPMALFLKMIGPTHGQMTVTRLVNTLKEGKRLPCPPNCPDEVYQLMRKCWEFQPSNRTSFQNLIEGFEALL

CCC1(n2nc(Nc3ccc(C(=O)N4C[C@@H](C)O[C@@H](C)C4)c(C)c3)c3c(=O)[nH]ccc32)CCN(C(=O)OC(C)(C)C)CC1 [Example 3-4, tert-butyl 4-{3-[(4-{[(2R,6S)-2,6-dimethylmorpholin-4-yl]carbonyl}-3-methylphenyl)amino]-4-oxo-4,5-dihydro-1H-pyrazolo[4,3-c]pyridin-1-yl}-4-ethylpiperidine-1-carboxylate]
IC50 (JAK1; [1]): 1.09 nM
IC50 (JAK2): 1.17 nM

CCC1(n2nc(Nc3ccc(C(=O)N4CCOCC4(C)C)c(C)c3)c3c(=O)[nH]ccc32)CCN(C(=O)OC(C)(C)C)CC1 [Example 3-5, tert-butyl 4-[3-({4-[(3,3-dimethylmorpholin-4-yl)carbonyl]-3-methylphenyl}amino)-4-oxo-4,5-dihydro-1H-pyrazolo[4,3-c]pyridin-1-yl]-4-ethylpiperidine-1-carboxylate]
IC50 (JAK1; [1]): 0.73 nM
IC50 (JAK2): 1.21 nM

CCC1(n2nc(Nc3ccc(C(=O)N4C[C@H]5C[C@@H](C4)O5)c(C)c3)c3c(=O)[nH]ccc32)CCN(C(=O)OC(C)(C)C)CC1 [Example 3-6, tert-butyl 4-ethyl-4-[3-({3-methyl-4-[(1R,5S)-6-oxa-3-azabicyclo[3.1.1]hept-3-ylcarbonyl]phenyl}amino)-4-oxo-4,5-dihydro-1H-pyrazolo[4,3-c]pyridin-1-yl]piperidine-1-carboxylate]
IC50 (JAK1): 0.3 nM
IC50 (JAK2): 0.43 nM

CCC1(n2nc(Nc3ccc(C(=O)N4C[C@H](C)O[C@@H](C)C4)c(C)c3)c3c(=O)[nH]ccc32)CCN(C(=O)OC(C)(C)C)CC1 [Example 3-7, tert-butyl 4-{3-[(4-{[(2S,6S)-2,6-dimethylmorpholin-4-yl]carbonyl}-3-methylphenyl)amino]-4-oxo-4,5-dihydro-1H-pyrazolo[4,3-c]pyridin-1-yl}-4-ethylpiperidine-1-carboxylate]
IC50 (JAK1; [1]): 0.52 nM
IC50 (JAK2): 0.63 nM

CCC1(n2nc(Nc3ccc(C(=O)N4CCOC[C@H]4C(C)C)c(C)c3)c3c(=O)[nH]ccc32)CCN(C(=O)OC(C)(C)C)CC1 [Example 3-8, tert-butyl 4-ethyl-4-{3-[(3-methyl-4-{[(3R)-3-(1-methylethyl)morpholin-4-yl]carbonyl}phenyl)amino]-4-oxo-4,5-dihydro-1H-pyrazolo[4,3-0]pyridin-1-yl} piperidine-1-carboxylate]
IC50 (JAK1; [1]): 0.93 nM
IC50 (JAK2): 1.01 nM

CCC1(n2nc(Nc3ccc(C(=O)N4CCCSCC4)c(C)c3)c3c(=O)[nH]ccc32)CCN(C(=O)OC(C)(C)C)CC1 [Example 3-9, tert-butyl 4-ethyl-4-(3-{[3-methyl-4-(1,4-thiazepan-4-ylcarbonyl)phenyl]amino}-4-oxo-4,5-dihydro-1H-pyrazolo[4,3-c]pyridin-1-yl) piperidine-1-carboxylate]
IC50 (JAK1; [1]): 0.79 nM
IC50 (JAK2): 1.05 nM

CCC1(n2nc(Nc3ccc(C(=O)N4CCCOCC4)c(C)c3)c3c(=O)[nH]ccc32)CCN(C(=O)OC(C)(C)C)CC1 [Example 3-10, tert-butyl 4-ethyl-4-(3-{[3-methyl-4-(1,4-oxazepan-4-ylcarbonyl)phenyl]amino}-4-oxo-4,5-dihydro-1H-pyrazolo[4,3-c]pyridin-1-yl) piperidine-1-carboxylate]
IC50 (JAK1; [1]): 0.29 nM
IC50 (JAK2): 0.43 nM

CCC1(n2nc(Nc3ccc(C(=O)N4CC[S+]([O-])CC4)c(C)c3)c3c(=O)[nH]ccc32)CCN(C(=O)OC(C)(C)C)CC1 [Example 3-11, tert-butyl 4-ethyl-4-[3-({3-methyl-4-[(1-oxidothiomorpholin-4-yl)carbonyl]phenyl}amino)-4-oxo-4,5-dihydro-1H-pyrazolo[4,3-c]pyridin-1-yl]piperidine-1-carboxylate]
IC50 (JAK1; [1]): 0.19 nM
IC50 (JAK2): 0.25 nM

CCC1(n2nc(Nc3ccc(C(=O)N4CCC(N5CCSCC5)CC4)c(C)c3)c3c(=O)[nH]ccc32)CCN(C(=O)OC(C)(C)C)CC1 [Example 3-12, tert-butyl 4-ethyl-4-[3-({3-methyl-4-[(4-thiomorpholin-4-ylpiperidin-1-yl)carbonyl]phenyl}amino)-4-oxo-4,5-dihydro-1H-pyrazolo[4,3-c]pyridin-1-yl] piperidine-1-carboxylate]
IC50 (JAK1; [1]): 0.56 nM
IC50 (JAK2): 0.68 nM

CCC1(n2nc(Nc3ccc(C(=O)N4CCOC5CC54)c(C)c3)c3c(=O)[nH]ccc32)CCN(C(=O)OC(C)(C)C)CC1 (centres unmarked) [Example 3-21, tert-butyl 4-ethyl-4-(3-{[3-methyl-4-(2-oxa-5-azabicyclo [4.1.0]hept-5-ylcarbonyl)phenyl]amino}-4-oxo-4,5-dihydro-1H-pyrazolo [4,3-c]pyridin-1-yl) piperidine-1-carboxylate]
IC50 (JAK1; [1]): 1.69 nM
IC50 (JAK2): 1.34 nM
